Experiment in all cases: Antimicrobial serial dilution assay (MIC)
Common to all, as to assay type: cell-based

The subject of assay [1] is Acinetobacter baumanii DSM 30008. The settings on record: serial dilution 67 to 0.5 µg/mL, overnight. How it is done: (§1) Antimicrobial activity was determined by our established protocol, according to Becker et al.. In general, all of the pure compounds were dissolved in MeOH with a concentration of 1 mg/mL. Assessment of the antimicrobial activity was determined using the serial dilution assay method to calculate the minimum inhibitory concentration (MIC). In this method, the compounds were diluted in a range between 67 and 0.5 µg/mL in 96 well-plate and incubated with the test organism overnight. The next day, growth of the test organisms was visually observed, and MIC was determined in the lowest concentration where a clear zone (no growth of test organism) was observed. In our attempt for novel anti-infective compounds, an established standard protocol using various organisms representing a broad spectrum of pathogens of clinical interest, as well as sensitive indicator strains, was used (bacteria: Bacillus subtilis DSM 10, Staphylococcus aureus DSM 346, Acinetobacter baumanii DSM 30008, Chromobacterium violaceum DSM 30191, Escherichia coli DSM 1116 and Pseudomonas aeruginosa PA14; mycobacteria: Mycobacterium smegmatis ATCC 700084 and fungi: Candida albicans DSM 1665, Schizosaccharomyces pombe DSM 70572, Mucor hiemalis DSM 2656, Wickerhamomyces anomala DSM 6766 and Rhodotorula glutinis DSM 10134). Methanol as a solvent to dissolve the pure compounds was used as the negative control. Oxytetracycline, ciprofloxacin, gentamycin, and kanamycin were used as positive controls against bacteria, whereas nystatin was used against fungi. A detailed experimental procedure can be found in the SI.
(§2) Protocol: Antimicrobial Activity Assay
(§3) The assay was conducted as a minimum inhibitory concentration (MIC) assay in 96-well round- bottom microtiter plates using the parameters summarized in Table S1 and as already described in [S1]. Stocks of the test organisms were generated by growing the organisms overnight in 50 mL shaking flasks filled with 25 mL of the growth medium at 140r p m ( media and temperatures see Table S1). If the organisms were well grown the next day, which was checked by the occurrence of an optical density (OD) […] of the suspension (OD600 nm for bacteria, OD548 nm for fungi and M. smegmatis), aliquots of these were stored in 1.5 mL reaction tubes in a freezer at −80 °C for up to 12 months. Upon use, aliquots were unthawed and the OD of the suspension measured and adjusted by diluting with the respective growth medium. OD600 nm was adjusted to 0.01 and OD548 nm to 0.1. Subsequently, 150 μ L of the adj usted suspensions were added to all wells of a 96-well microtiter plate (one test organism per plate). In row A, additional 130 μ L of suspensions plus 20 μ L of the test compounds (1 mg/mL) and the controls (one compound/column) were added. MeOH was used as negative controls, while different positive controls (references) were used for the test organisms (see Table S1). Then, starting from row A, 150 μ L of t he suspension were transferred to the next row, the contents thoroughly mixed, and 150 μ L transferred to the following row. The remaining 150 μ L after row H were discarded. […]
(§4) of the test compounds, ranging from 66.7 μg/mL in row A to 0.52 μ g/mL in row H. The microtiter plates were then incubated overnight on a microplate shaker at 800 rpm at 30 or 37 °C (see Table S1) and were visually evaluated the next day. The MIC is defined as the lowest concentration where no growth of the test organism (clear zone) was observed. A lower MIC thus corresponds to a higher antimicrobial activity of the test compound.
(§5) Table S1: MIC assay experiment parameters test organism strain No growth incubation positive control […]
(§6) Candidaa lbicans DSM1665 MYC3 30 nystatin 1.0mg/ mL
(§7) Schizosaccharomyces DSM70572 MYC3 30 nystatin 1.0mg/ mL
(§8) Mucor hiemalis DSM2656 MYC3 30 nystatin 1.0mg/ mL
(§9) Wickerhamomyces DSM6766 MYC3 30 nystatin 1.0mg/ mL
(§10) Rhodotorula glutinis DSM10134 MYC3 30 nystatin 1.0mg/ mL
(§11) 1 MHB: Müller-Hinton Broth (SN X927.1, CarlRoth GmbH, Karlsruhe, Germany) […]

A further assay deals with Pichia anomala DSM 6766. To be noted: serial dilution 67 to 0.5 µg/mL, overnight. How it is done:
as §1, §2, §3, §4, §5, §6, §7, §8, §9, §10, §11

For assay [2], the system named is Rhodotorula glutinis DSM 10134. To be noted: serial dilution 67 to 0.5 µg/mL, overnight. How it is done:
as §1, §2, §3, §4, §5, §6, §7, §8, §9, §10, §11

Another assay concerns Mucor hiemalis DSM 2656. To be noted: overnight. On the procedure:
as §1, §2, §3, §4, §5, §6, §7, §8, §9, §10, §11

The test system of assay [3] is Staphylococcus aureus DSM 346. To be noted: serial dilution 67 to 0.5 µg/mL, overnight. How it is done: as §1, §2, §3
of the test compounds, ranging from 66.7 μg/mL in row A to 0.52 μ g/mL in row H. The microtiter plates were then incubated overnight on a microplate shaker at 800 rpm at 30 or 37 °C (see Table S1) and were visually evaluated the next day. The MIC is defined as the lowest concentration where no growth of the test organism (clear zone) was observed. […]

The mark [4] stands for this setting: serial dilution 67 to 0.5 µg/mL.

For orientation: MIC means the lowest concentration that inhibits growth of the organism.

≈ marks a conversion by molar mass, not a printed value. Read-outs that look alike come from different tables or passages of the source.

On to `CC(=O)OC(C(=O)O)C(C)C1C(C)=CC2CC(C)CCC2C1(C)C(O)=C1C(=O)C(C)N(C)C1=O` (stereo not drawn) [compound 1, Colposetin A], for which the MIC result (in assay [1]; in the assay with Pichia anomala DSM 6766; in assay [2]; with Mucor hiemalis DSM 2656 (setting [4]); in assay [3]) was “n.i” throughout.

For the compound `CCC(C(=O)O)C1C(C)=CC2CC(C)CCC2C1(C)C(O)=C1C(=O)C(C)N(C)C1=O` (stereo not drawn) [compound 2, Colposetin B], the MIC entry in assay [1] was “n.i”; in the assay on Pichia anomala DSM 6766, “n.i”; in assay [2], “n.i”; with Mucor hiemalis DSM 2656 (DSM2656, serial dilution 67 to 0.5 µg/mL, read-out: MIC) it was 67 µg/mL (≈ 160 µM).

For `CC1=CC2CC(C)CCC2C2(C)C(=O)OC(C(=O)O)C(C)C12` (stereo not drawn) [compound 3, Colposetin C], the MIC result (in assay [1]; against Pichia anomala DSM 6766; in assay [2]; in the assay on Mucor hiemalis DSM 2656 (setting [4]); in assay [3]) was “n.i” in each case.

Take `CC(C=CCC(C)CCC=C(C)C(=O)C1=C(O)C(C)N(C)C1=O)=CC(C)C(O)C(=O)O` (stereo not drawn) [compound 4, Colpomenoic acid A]: the MIC entry (in assay [1]; against Pichia anomala DSM 6766; in assay [2]; against Mucor hiemalis DSM 2656 (setting [4]); in assay [3]) was “n.i” each time.

As for `CC(C=CCC(C)C=CC=C(C)C(=O)C1=C(O)C(C)N(C)C1=O)=CC(C)C(O)C(=O)O` (stereo not drawn) [compound 5, Colpomenoic acid B], the MIC result (in assay [1]; with Pichia anomala DSM 6766; in assay [2]; against Mucor hiemalis DSM 2656 (setting [4]); in assay [3]) was “n.i” each time.

The record behind these values is publication PMC8224775, “Five Tetramic Acid Derivatives Isolated from the Iranian Fungus Colpoma quercinum CCTU A372” (Biomolecules, 2021).
